Test results from patent US4668689A, “Glutarimide derivatives for treating oestrogen-dependent tumors” (National Research Development Corporation, priority 1984, dated 1987).
Where two headings read alike, the source gives them in different places.

Columns and labels:
desmolase [1] = biological target: T1, desmolase (Bos taurus, UniProt P00189); test: Desmolase inhibition, (26-^14C)-cholesterol as substrate (7 micromolar), mitochondrial fraction of bovine adrenal cortex; type: biochemical
T1 construct: The mitochondrial fraction of bovine adrenal cortex provided the source of desmolase; from tissue; host or cells: bovine adrenal cortex, mitochondrial fraction
T1 sequence (P00189 40-520): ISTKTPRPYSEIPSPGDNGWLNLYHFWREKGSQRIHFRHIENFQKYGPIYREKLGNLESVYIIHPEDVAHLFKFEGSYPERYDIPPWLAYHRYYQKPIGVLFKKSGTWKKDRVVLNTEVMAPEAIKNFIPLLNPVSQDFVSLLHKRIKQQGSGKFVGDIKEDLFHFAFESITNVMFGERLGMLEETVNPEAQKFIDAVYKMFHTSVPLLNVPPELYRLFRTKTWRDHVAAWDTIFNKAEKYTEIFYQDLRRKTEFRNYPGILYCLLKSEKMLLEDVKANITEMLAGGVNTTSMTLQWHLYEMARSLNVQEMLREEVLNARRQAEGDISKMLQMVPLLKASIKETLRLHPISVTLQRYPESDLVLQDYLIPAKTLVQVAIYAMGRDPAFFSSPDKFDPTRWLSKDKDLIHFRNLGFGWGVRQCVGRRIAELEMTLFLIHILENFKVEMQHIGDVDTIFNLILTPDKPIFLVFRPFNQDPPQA

aromatase [2] = biological target: T2, aromatase (Homo sapiens, UniProt P11511); test: Aromatase inhibition, (1,2-^3H) testosterone as substrate (1.5 micromolar), microsomal fraction of human placental tissue; type: biochemical; conditions: for IC50: 1.5 micromolar (^3H) testosterone; for IC50 / IC50 Aromatase Testosterone: 30° C., "None" = no inhibition; for IC50 Aromatase Testosterone: […] (^3H) testosterone; for aromatase inhibition (in words): substrate not stated
T2 construct: Aromatase was obtained from the microsomal fraction of human placental tissue; from tissue; host or cells: human placenta, microsomal fraction
T2 sequence (P11511 1-503): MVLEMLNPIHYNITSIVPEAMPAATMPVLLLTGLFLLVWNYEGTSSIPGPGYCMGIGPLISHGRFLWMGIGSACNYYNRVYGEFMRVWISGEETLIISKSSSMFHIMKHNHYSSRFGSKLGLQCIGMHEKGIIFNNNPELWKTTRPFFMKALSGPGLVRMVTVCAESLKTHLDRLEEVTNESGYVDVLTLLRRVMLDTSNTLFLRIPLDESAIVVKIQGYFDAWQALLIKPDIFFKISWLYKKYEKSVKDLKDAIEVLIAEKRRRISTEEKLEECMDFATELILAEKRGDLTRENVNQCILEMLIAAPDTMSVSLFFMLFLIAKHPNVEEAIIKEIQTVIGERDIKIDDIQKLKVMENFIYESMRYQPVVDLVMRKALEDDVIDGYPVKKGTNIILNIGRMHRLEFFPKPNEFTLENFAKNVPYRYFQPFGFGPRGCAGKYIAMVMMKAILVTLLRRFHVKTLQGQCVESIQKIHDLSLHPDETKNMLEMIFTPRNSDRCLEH

aromatase [3] = biological target: T2, aromatase; test: Aromatase inhibition, (1,2-^3H) androstene-3,17-dione as substrate (0.38 micromolar), microsomal fraction of human placental tissue; type: biochemical; conditions: 0.38 micromolar (^3H) androstene-3,17-dione, 30° C., "None" = no inhibition; for IC50: read-out: IC50 Aromatase Androstenedione
desmolase [4] = conditions: literature; cited from earlier work
[5] = CNS (sedative-hypnotic) activity; conditions: in vivo
[6] = 7 micromolar (^14C) cholesterol, 30° C., "None" = no inhibition
[7] = 7 micromolar (^14C) cholesterol, 30° C., "None" = no inhibition, read-out: IC50 Desmolase

Row | SMILES | IC50 Desmolase (desmolase [1]; [6]) | IC50 (aromatase [2]) | further results
1 | CCCC1(c2ccncc2)CCC(=O)NC1=O (centres unmarked) [R1=n-C3 H7, R2=H] | none |  | 
2 | O=C1CCC(CCC(F)(F)F)(c2ccncc2)C(=O)N1 (centres unmarked) [R1=(CH2)2 CF3, R2=H] | none | 2.9 µM | IC50 (aromatase [3]): 7 µM
3 | CCC1(c2ccncc2)CCC(=O)N(CCC(F)(F)C(F)(F)C(F)(F)C(F)(F)C(F)(F)C(F)(F)F)C1=O (centres unmarked) [R1=C2 H5, R2=(CH2)2 (CF2)5 CF3] |  | 34 µM | IC50 (aromatase [3]): 23 µM; IC50 (desmolase [1]): 145 µM
4 | CCCCN1C(=O)CCC(CC)(c2ccncc2)C1=O (centres unmarked) [R1=C2 H5, R2=n-C4 H9] | none |  | 
5 | CCCCCCCCCCN1C(=O)CCC(CC)(c2ccncc2)C1=O (centres unmarked) [R1=C2 H5, R2=n-C10 H21] |  |  | IC50 (desmolase [1]; [7]): 340 µM
6 | O=C1CCC(CCC(F)(F)C(F)(F)C(F)(F)C(F)(F)F)(c2ccncc2)C(=O)N1 (centres unmarked) [R1=(CH2)2 (CF2)3 CF3, R2=H, reference compound] | none | 18 µM | IC50 (aromatase [3]): 22 µM
7 | CCCCC1(c2ccncc2)CCC(=O)NC1=O (centres unmarked) [R1=n-C4 H9, R2=H] | none |  | 
8 | CCCCCCCCC1(c2ccncc2)CCC(=O)N(CCCC)C1=O (centres unmarked) [R1=n-C8 H17, R2=n-C4 H9, reference compound] |  |  | IC50 Aromatase Testosterone (aromatase [2]): none; aromatase inhibition (in words) (aromatase [2]): no aromatase inhibition; IC50 (desmolase [1]; [7]): 106 µM
9 | CCN1C(=O)CCC(CC)(c2ccncc2)C1=O (centres unmarked) [R1=C2 H5, R2=n-C2 H5, reference compound] |  |  | IC50 (desmolase [1]; [7]): 92 µM
10 | CCCCCCN1C(=O)CCC(CC)(c2ccncc2)C1=O (centres unmarked) [R1=C2 H5, R2=n-C6 H13] | none |  | 
11 | O=C1CCC(CCC(F)(F)C(F)(F)C(F)(F)F)(c2ccncc2)C(=O)N1 (centres unmarked) [R1=(CH2)2 (CF2)2 CF3, R2=H] | none | 18 µM | IC50 (aromatase [3]): 22 µM
12 | CCCCCN1C(=O)CCC(CC)(c2ccncc2)C1=O (centres unmarked) [R1=C2 H5, R2=n-C5 H11] |  |  | IC50 (desmolase [1]; [7]): 209 µM
13 | CCC1(c2ccncc2)CCC(=O)N(CC(F)(F)C(F)(F)C(F)(F)F)C1=O (centres unmarked) [R1=C2 H5, R2=CH2 (CF2)2 CF3] | none | 19 µM | IC50 (aromatase [3]): 106 µM
14 | CCCCCCCCCC1(c2ccncc2)CCC(=O)NC1=O (centres unmarked) [R1=n-C9 H19, R2=H] | none |  | 
15 | CCC1(c2ccncc2)CCC(=O)N(C)C1=O (centres unmarked) [R1=C2 H5, R2=CH3] | none |  | 
16 | CCCCCCC1(c2ccncc2)CCC(=O)N(CC)C1=O (centres unmarked) [R1=n-C6 H13, R2=n-C2 H5] | none | 2.1 µM | 
17 | CCC1(c2ccc(N)cc2)CCC(=O)NC1=O (centres unmarked) [Aminoglutethimide] |  |  | inhibition of desmolase (desmolase [4]): also inhibits the enzyme desmolase
18 | CCC1(c2ccncc2)CCC(=O)N(CCC(F)(F)C(F)(F)C(F)(F)F)C1=O (centres unmarked) [R1=C2 H5, R2=(CH2)2 (CF2)2 CF3] |  | 3 µM | IC50 (aromatase [3]): 15 µM; IC50 (desmolase [1]): 240 µM
19 | CCC1(c2ccncc2)CCC(=O)N(CC(F)(F)F)C1=O (centres unmarked) [R1=C2 H5, R2=CH2 CF3] |  | 14 µM | IC50 (aromatase [3]): 31 µM; IC50 (desmolase [1]; [7]): > 350 µM
20 | CCCCCCCCN1C(=O)CCC(CCCCCCCC)(c2ccncc2)C1=O (centres unmarked) [R1=n-C8 H17, R2=n-C8 H17, reference compound] |  |  | IC50 Aromatase Testosterone (aromatase [2]): none; IC50 (desmolase [1]; [7]): 169 µM

Row | SMILES | IC50 Desmolase (desmolase [1]; [6]) | IC50 (aromatase [2]) | further results
21 | CCCCCC1(c2ccncc2)CCC(=O)NC1=O (centres unmarked) [R1=n-C5 H11, R2=H] | none | 3.2 µM | 
22 | CN1C(=O)CCC(C)(c2ccncc2)C1=O (centres unmarked) [R1=CH3, R2=CH3, reference compound] | none | > 90 µM | 
23 | CCCCCCCCN1C(=O)CCC(CC)(c2ccncc2)C1=O (centres unmarked) [R1=C2 H5, R2=n-C8 H17] |  |  | IC50 (desmolase [1]; [7]): 110 µM
24 | CCCCCCCC1(c2ccncc2)CCC(=O)NC1=O (centres unmarked) [R1=n-C7 H15, R2=H] | none | 2 µM | 
25 | CCC1(c2ccncc2)CCC(=O)N(CC2CCCCC2)C1=O (centres unmarked) [R1=C2 H5, R2=[drawing 7]] | none | 9 µM | 
26 | CCC1(c2ccncc2)CCC(=O)N(CCC(F)(F)F)C1=O (centres unmarked) [R1=C2 H5, R2=CH2 CH2 CF3] | none | 11 µM | IC50 (aromatase [3]): 42 µM
27 | CCCCCCCCC1(c2ccncc2)CCC(=O)NC1=O (centres unmarked) [R1=n-C8 H17, R2=H] | none |  | 
28 | CCC1(c2ccncc2)CCC(=O)N(CCC(F)(F)C(F)(F)C(F)(F)C(F)(F)C(F)(F)C(F)(F)C(F)(F)C(F)(F)F)C1=O (centres unmarked) [R1=C2 H5, R2=(CH2)2 (CF2)7 CF3] |  | 15 µM | IC50 Aromatase Androstenedione (aromatase [3]): none; IC50 (desmolase [1]): 150 µM
29 | CCC1(c2ccncc2)CCC(=O)NC1=O (centres unmarked) [Pyridoglutethimide, 3-ethyl-3-(4-pyridyl)piperidine-2,6-dione] | none |  | CNS (sedative-hypnotic) activity [5]: little or no CNS (sedative-hypnotic) activity; inhibition of desmolase (desmolase [4]): not desmolase
30 | CCCN1C(=O)CCC(CC)(c2ccncc2)C1=O (centres unmarked) [R1=C2 H5, R2=n-C3 H7] | none |  | 
31 | CCCCCCCCCN1C(=O)CCC(CC)(c2ccncc2)C1=O (centres unmarked) [R1=C2 H5, R2=n-C9 H19] |  |  | aromatase inhibition (in words) (aromatase [2]): dramatic increase; IC50 (desmolase [1]; [7]): 175 µM
32 | CCC1(c2ccncc2)CCC(=O)N(CCC(F)(F)C(F)(F)C(F)(F)C(F)(F)F)C1=O (centres unmarked) [R1=C2 H5, R2=(CH2)2 (CF2)3 CF3] |  | 9 µM | IC50 (aromatase [3]): 9 µM; IC50 (desmolase [1]): 120 µM
33 | CCCCCCCCC1(c2ccncc2)CCC(=O)N(CCCCCC)C1=O (centres unmarked) [R1=n-C8 H17, R2=n-C6 H13, reference compound] |  | 10 µM | desmolase inhibition (in words) (desmolase [1]): significant desmolase inhibition; IC50 (desmolase [1]; [7]): 73 µM
34 | CCCCCCCN1C(=O)CCC(CC)(c2ccncc2)C1=O (centres unmarked) [R1=C2 H5, R2=n-C7 H15] |  |  | IC50 (desmolase [1]; [7]): 210 µM
35 | O=C1CCC(CCC(F)(F)C(F)(F)C(F)(F)C(F)(F)C(F)(F)C(F)(F)C(F)(F)C(F)(F)F)(c2ccncc2)C(=O)N1 (centres unmarked) [R1=(CH2)2 (CF2)7 CF3, R2=H, reference compound] |  |  | IC50 Aromatase Androstenedione (aromatase [3]): none; IC50 (desmolase [1]): 79 µM
36 | CC1(c2ccncc2)CCC(=O)NC1=O (centres unmarked) [R1=CH3, R2=H, reference compound] | none |  | 
37 | O=C1CCC(CCC(F)(F)C(F)(F)C(F)(F)C(F)(F)C(F)(F)C(F)(F)F)(c2ccncc2)C(=O)N1 (centres unmarked) [R1=(CH2)2 (CF2)5 CF3, R2=H, reference compound] |  |  | IC50 Aromatase Testosterone (aromatase [2]): none; IC50 Aromatase Androstenedione (aromatase [3]): none; IC50 (desmolase [1]): 93 µM
38 | CCCCN1C(=O)CCC(CCCC)(c2ccncc2)C1=O (centres unmarked) [R1=n-C4 H9, R2=n-C4 H9] | none | 2.1 µM | 
39 | CCCCCCC1(c2ccncc2)CCC(=O)NC1=O (centres unmarked) [R1=n-C6 H13, R2=H] | none | 3.8 µM | 
